In brackets after ≈: the same amount, converted by molar mass.
Assays:
[1] = cells; conditions: Homo sapiens, Pulmonary Artery Smooth Muscle Cells, read-out: pEC50 (converted)
[2] = Metabolic stability in rat microsomes assessed as half life; type: ADME, Microsome
[3] = Apparent permeability across apical to basolateral side in human Caco-2 cells; type: ADME, cell-based
[4] = Kinetic solubility of the compound in PBS at pH 7.2; type: physicochemical; conditions: read-out: Kinetic_solubility

SMILES | EC50 [1] [nM] | half-life [2] [min] | Papp A→B [3] [×10⁻⁶ cm/s] | solubility kinetic [4] [µM]
O=C1Cc2cc(-c3cn[nH]c3)ccc2CCN1c1ccccc1 | 398 | – | – | –
O=C1Cc2cc(-c3ccnc4[nH]ccc34)ccc2CCN1c1ccccc1 | 12.6 | 18 | 26.9 | < 5
O=C1Cc2cc(-c3ncnc4[nH]ccc34)ccc2CCN1c1ccccc1 | 50.1 | – | – | –
COc1cccc(N2CCc3ccc(-c4ccnc5[nH]ccc45)cc3CC2=O)c1 | 31.6 | – | – | –
CN1CCN(CCCOc2cccc(N3CCc4ccc(-c5ccnc6[nH]ccc56)cc4CC3=O)c2)CC1 | 5.01 | 8.4 | 5.6 | –
O=C1CCc2ccc(-c3ccnc4[nH]ccc34)cc2CN1c1ccccc1 | – | – | – | 131 (≈ 46.3 µg/mL)
Nc1cc(-c2ccc3c(c2)CC(=O)N(c2ccccc2)CC3)ccn1 | 316 | – | – | –
